Results reported in paper PMC11395333, “The Bifunctional Dimer Caffeine-Indan Attenuates α-Synuclein Misfolding, Neurodegeneration and Behavioral Deficits after Chronic Stimulation of Adenosine A1 Receptors” (International Journal of Molecular Sciences, 2024).

What was measured:
male Sprague-Dawley rats = assay: Forced swim test after 7-day chronic i.p. CPA injection; format: in vivo, rat
Excerpt: All animals were housed and treated humanely following the guidelines from the following governing bodies: National Research Council (US) Committee for the Update of the Guide for the Care and Use of Laboratory Animals (Washington DC, USA, 2011); Canadian Council on Animal Care (CCAC); and the University of Saskatchewan Animal Research Ethics Board (AREB), which approved our Animal Use Protocol (#20070090 and #20170079). The animals were housed in cages of two, with access to food pellets and water ad libitum. The four treatments of the Sprague-Dawley rats consisted of the following: 1. Control (0.1% DMSO in 0.9% saline); 2. CPA; 3. […] Drugs were dissolved at 3 mg/mL in DMSO, and each drug was administered to the animals by daily i.p. injections (3 mg/kg or 5 mg/kg body weight) for 7 consecutive days. […] Then, on days 8 and 9 following the final injections, the animals were subjected to several behavioral tests. The forced swim test is used to assess depressive behavior such as despair and learned helplessness. The test is also used to assess the vigor and the ability of the animal to keep its head above the water in which the animals swim. In addition, the first and last three minutes of the test were manually scored for the ability of the rat to swim with all its four limbs. […] In addition, the ability of the animal to keep its head above water was scored. […] The forced swim test apparatus was a plexiglass cuboid measuring 30 cm in length, 30 cm in width and 60 cm in depth. The tank was then filled two-thirds with lukewarm water not exceeding 25 °C. Afterwards, the animal was left in the cylinder for 10 min during which its time spent immobile as well as its ability to swim and keep its head above water was analyzed. This trial was then used to calculate the percentage of time the animals spent immobile, as well as the vigor and success with which the animal swam. A video camera was used to record the animal movement in this test. The forced swim test was conducted the following day (day nine), giving the animals a sufficient resting period from the Y-maze and open field tests. Each experiment was repeated at least fifteen times per treatment, and the average of each treatment is presented in the bar graphs as average means ± SEM.

α-Syn = assay: Immunohistochemistry and Thioflavin-S staining of brain slices (α-Syn expression and aggregation); format: in vivo, rat
Excerpt: All animals were housed and treated humanely following the guidelines from the following governing bodies: National Research Council (US) Committee for the Update of the Guide for the Care and Use of Laboratory Animals (Washington DC, USA, 2011); Canadian Council on Animal Care (CCAC); and the University of Saskatchewan Animal Research Ethics Board (AREB), which approved our Animal Use Protocol (#20070090 and #20170079). The animals were housed in cages of two, with access to food pellets and water ad libitum. The four treatments of the Sprague-Dawley rats consisted of the following: 1. Control (0.1% DMSO in 0.9% saline); 2. CPA; 3. […] Drugs were dissolved at 3 mg/mL in DMSO, and each drug was administered to the animals by daily i.p. injections (3 mg/kg or 5 mg/kg body weight) for 7 consecutive days. […] Then, on days 8 and 9 following the final injections, the animals were subjected to several behavioral tests.
Anesthetized rats were transcardially perfused with 0.9% saline, and then fixed with 4% paraformaldehyde. The extracted brains were put in 30% cryoprotected sucrose solution for 48 h prior to slicing. The brains were initially frozen at −40 °C (BFS-30 mp controllers) and sliced with the help of a microtome (Leica SM2010 R Sliding controller). Coronal slices of 40 μm were then washed three times in 0.1 M phosphate-buffered saline followed by 1 h blocking at room temperature with blocking buffer. The buffer solution components have been previously described. The slices were then incubated overnight at 4 °C with the following primary antibodies: 1:200 mouse monoclonal to α-synuclein (Abcam Inc, Toronto, ON, Canada; Cat# ab280377) and 1:200 rabbit polyclonal to tyrosine hydroxylase (TH) (Millipore-Sigma, Oakville, ON, Canada; Cat# AB152). Subsequently, slices were then incubated for 1 h in the dark at room temperature with the following secondary antibodies (1:1000): AlexaFluor-555-conjugated anti-mouse (Cat# A-21127) and AlexaFluor-647-conjugated anti-rabbit (Cat# A-21244) purchased from Invitrogen (Thermo Fisher Scientific, Waltham, MA, USA). Slices were then treated with Thioflavin-S (see further details below). Lastly, the slices were incubated for 5 min at room temperature with DAPI (2 mg/mL) from Invitrogen (Thermo Fisher Scientific; Cat# R37606) and images were taken using a Zeiss LSM700 confocal microscope (Carl Zeiss Group, Toronto, ON, Canada) and analyzed with ImageJ (Open-Source Public Domain software, United States National Institute of Health (US NIH), Bethesda, MD, USA). Images of the hippocampal CA1 pyramidal layer and the SN pars compacta were obtained using the Zeiss Plan-Apochromat 63X/1.4 oil objective lens (Carl Zeiss Group, Toronto, ON, Canada). Images were acquired as Z-stack images of hippocampal or SN regions with 12–13 Z-stack images taken at 1 µm intervals near the middles of brain slices. Two Z-stack images were taken along the hippocampal CA1 or SN pars compacta region for each slice, and immunofluorescence signals were averaged using densitometry analysis.
Thioflavin-S (Thio-S) is a fluorescent marker (Sigma-Aldrich, Oakville, ON, Canada; Cat# T1892-25G) that detects α-Syn aggregates and amyloid plaques. Coronal slices of 40 μm were firstly treated with 0.3% KMnO4 for 4 min, followed by a 30 min incubation with 1 M phosphate buffered saline at 4 °C. These slices were then stained with 0.05% Thioflavin-S in 50% ethanol in the dark for 8 min, rinsed with 80% ethanol twice, followed by three rinses with ultra-pure water for 30 s. Finally, the slices were incubated again with 1 M phosphate buffered saline for 30 min at 4 °C before starting the DAPI stain. The FITC filter (488 nm laser line) was used to image Thioflavin-S using a Zeiss LSM700 confocal microscope (Carl Zeiss Group, Canada) and images were analyzed with ImageJ (Public Domain).

[1] = 3 or 5 mg/kg i.p. with 3 mg/kg CPA, 7 days
[2] = CPA 3 mg/kg i.p. daily for 7 days, alone

Compound	Forced swim test, vigor and success scores (male Sprague-Dawley rats; 5 mg/kg i.p. with 3 mg/kg CPA, 7 days)	Forced swim test, immobility time (male Sprague-Dawley rats; [1])	Forced swim test, motor deficits (male Sprague-Dawley rats; [1])	Thio-S levels in CA1 hippocampus (α-Syn; 3 mg/kg + CPA)	Thio-S levels in SNc (α-Syn; 3 mg/kg + CPA, compared to control)	Thio-S levels in SNc (α-Syn; 5 mg/kg + CPA)	Thio-S levels in hippocampus (α-Syn; 5 mg/kg + CPA)	α-Syn levels in SNc and CA1 hippocampal region (α-Syn; co-treatment with 3 mg/kg CPA, 7 days)	Forced swim test, motor deficits (male Sprague-Dawley rats; [2])	α-Syn levels in SNc and CA1 hippocampal region (α-Syn; [2])	Thio-S levels in SNc (α-Syn; CPA 3 mg/kg i.p. daily for 7 days, alone, compared to control)
Cn1c(=O)c2c(nc(CCCCCCNC3CCc4ccccc43)n2C)n(C)c1=O (centres unmarked) [C8–6–I]	significantly improved the ability to purposely swim and use all limbs, as well as the ability to keep their head above water	spent significantly less time being immobile compared to the CPA-treated rats	produced no significant motor deficits	abolished the CPA-induced Thio-S levels	significant increase in Thio-S levels	reached control levels	moderate but significant Thio-S level increase	prevented this α-Syn upregulation			
OC[C@H]1O[C@@H](n2cnc3c(NC4CCCC4)ncnc32)[C@H](O)[C@@H]1O [CPA, N^6-Cyclopentyladenosine, reference compound]									induced an increase in motor deficits	markedly increased	significant increase in Thio-S levels
